Source: publication PMC3368874, “Characterization of 4-HNE Modified L-FABP Reveals Alterations in Structural and Functional Dynamics” (PLoS ONE, 2012)
Read-outs that look alike come from different tables or passages of the source. One block for each compound: values may come before it.

Tests used:
rL-FABP [1] = target: T1, rL-FABP (Mus musculus, UniProt P12710); assay: Displacement of ANS by fatty acids, WT rL-FABP; type: binding; settings: for bi (counts inhibitable) / Ki: 45 µM ANS, 1 µM protein; for Ki: read-out: ki (inhibition constant)
T1 construct: made in house; host or cells: Escherichia coli BL21 (DE3)
T1 sequence (P12710 1-127): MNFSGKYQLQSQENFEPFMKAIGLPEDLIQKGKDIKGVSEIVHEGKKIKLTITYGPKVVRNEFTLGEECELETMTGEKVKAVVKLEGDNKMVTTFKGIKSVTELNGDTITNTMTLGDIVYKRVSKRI
Description: (§1) Lipid displacement assays were adapted from previous publications, [30]. Briefly, lipids were used to displace ANS bound to rL-FABP to assess how 4-HNE modification affects affinity towards more biologic ligands. Lipid stocks were diluted in absolute ethanol (10 mM, 5 mM, 1 mM, 0.1 mM) and prepared in a nitrogen gas chamber. Using conditions similar to ANS binding, increasing concentrations of FAs [stearate (SA), oleate (OA), and LA] were titrated into a pre-equilibrated solution containing 45 µM ANS, 1 µM r-LFABP, and 50 mM tricine (pH 8.0). The sample was mixed for an additional 30 seconds and the excitation and emission of ANS was measured as mentioned, where the loss of fluorescence indicates affinity towards the lipid.
(§2) For the displacement assays, one-site inhibition analysis of the data was utilized based on the fit of the data (instead of a two-site inhibition analysis) (eq2). Fluorescence counts that are inhibitable are denoted as bi, and residual counts are br. The concentration of OA, SA or LA is denoted as [FA]. The Hill constant, η, indicates the cooperativity between the binding sites, where if η >1 the sites are positively cooperative, η <1 the site are negatively cooperative, and if η = 1 the sites are non-cooperative. [drawing 2] (2)

4-HNE adducted rL-FABP = target: T2, 4-HNE adducted rL-FABP (Mus musculus, UniProt P12710); assay: Displacement of ANS by fatty acids, 1X 4-HNE treated rL-FABP; type: binding; settings: for bi (counts inhibitable) / Ki: 1X 4-HNE (53.95 µM) treated rL-FABP; for Ki: read-out: ki (inhibition constant); for br (counts residual) / n (hill coefficient): 1X 4-HNE treated rL-FABP; for reduction of maximal binding to the FA by 4-HNE: 1X 4-HNE treated versus WT rL-FABP
T2 construct: made in house; host or cells: Escherichia coli BL21 (DE3)
T2 sequence (P12710 1-127): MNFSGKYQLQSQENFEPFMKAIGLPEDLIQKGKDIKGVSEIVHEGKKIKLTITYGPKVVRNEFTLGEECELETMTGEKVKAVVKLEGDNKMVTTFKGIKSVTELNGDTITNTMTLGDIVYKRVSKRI
Description: as §1, §2

L-FABP [2] = tested on: L-FABP
Source text: All protocols were approved by the Institutional Animal Care and Use Committee (IACUC) at the University of Colorado Anschutz Medical Campus. Male C57Bl/6J mice were fed a modified Lieber-DeCarli Diet (BioServ, Frenchtown, NJ) consisting of 45% fat-derived calories and 15% protein-derived calories with the remaining caloric content derived from either ethanol or maltose-dextrin. Mice were fed for a period of 6 weeks according to previous laboratory studies, [20]. At termination, the liver was harvested for whole tissue and histological evaluation as previously described, [21]. Subcellular fractions were isolated from whole liver tissue using sucrose gradient centrifugation.
200 ug of whole cell homogenates from both control and ethanol mice (n = 6/group) were incubated with 5 ug of mouse monoclonal ubiquitin antibody (Abcam, cat# ab411) for 2 hours at 4°C on a rotator to allow ubiquitin protein to bind to antibody. 100 ul of a 50% Protein G slurry (prepared and stored in 0.02% sodium azide and PBS, pH 7.4) was added to the reaction and incubated at 4°C rotating overnight. Samples were washed 5×5 minutes in PBST (PBS +[…]) and denatured in SDS-PAGE loading buffer at 95°C for 5 minutes. Immunoprecipitated protein was separated via SDS-PAGE and transferred to PVDF, and immunoblotted for L-FABP (Abcam, cat # 7847). Density of ubiquitinated bands were normalized to levels of L-FABP/β-Actin determined by immunoblotting.
Total RNA was isolated from […] of frozen tissue from control and ethanol-fed mice (n = 3) using RNeasy Mini Kits (Qiagen,Valencia, CA).

L-FABP [3] = settings: following ethanol consumption in rats; cited from earlier work
FABP1 = settings: 4 week ramped ethanol feeding regimen; cited from earlier work
rL-FABP [4] = target: T1, rL-FABP; assay: ANS equilibrium binding to native rL-FABP (fluorescence)
Description: (§3) Steady-state fluorescence spectra were measured using a HORIBA JOBIN YVON FluoroMax-3 Fluorometer (Edison, NJ USA). The binding of ANS to rL-FABP was monitored following excitation at 370 nm and emission at 475 nm, with slits set at 2 and 4 nm, respectively. Measurements were taken at ambient temperature in a 0.7 mL fluorescence cuvette (Starna Cells, Atascadero, CA). Equilibrium binding studies were conducted with saturating concentrations of ANS according to previous studies, [30] with slight modifications. Briefly, ANS (0–45 µM) was titrated into 1 µM rL-FABP in 50 mM tricine buffer (pH 8.0), mixed for 30 seconds, and emission spectra were recorded. rL-FABP was either treated with 4-HNE (0.1X [5.93 µM], 1X [53.93 µM], or 5X [245.09 µM]) or the arginine blocker phenylglyoxal (PG) (10 mM), or a combination of the two (PG +5X). Following treatments, protein was dialyzed overnight in tricine buffer, pH 8.0. Preparation of ANS was conducted according to Denicola et al., where it was solubilized in absolute ethanol and quantified at Abs372 with an extinction coefficient of 8,000 cm^−1·M^−1 prior to use.
(§4) Statistical analysis and generation of graphs was performed using GraphPad Prism (v 4.02; GraphPad Software, San Diego, CA) and SigmaPlot (v10.0; Systat Software, San Jose, CA). Statistical differences between control and treated samples were assessed using a paired Student’s t test or a one-way ANOVA with Tukey’s post-test. Differences were considered significant if p<0.05. Nonlinear regression (curve fit) analysis was performed using a two-site binding hyperbola (eq 1), where ΔF is the enhancement in fluorescence intensity upon the binding of ANS to L-FABP to a point of saturation (Bmax). [drawing 1] (1)

4-HNE modified rL-FABP = target: T3, 4-HNE modified rL-FABP (Mus musculus, UniProt P12710); assay: ANS equilibrium binding to 4-HNE treated rL-FABP (fluorescence)
T3 construct: made in house; host or cells: Escherichia coli BL21 (DE3)
T3 sequence (P12710 1-127): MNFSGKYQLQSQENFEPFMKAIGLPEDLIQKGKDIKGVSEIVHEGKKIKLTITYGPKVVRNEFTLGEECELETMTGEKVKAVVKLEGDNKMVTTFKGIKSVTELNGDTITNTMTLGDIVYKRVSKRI
Description: as §3, §4

PG treated rL-FABP = target: T4, PG treated rL-FABP (Mus musculus, UniProt P12710); assay: ANS equilibrium binding to phenylglyoxal (PG) treated rL-FABP
T4 construct: made in house; host or cells: Escherichia coli BL21 (DE3)
T4 sequence (P12710 1-127): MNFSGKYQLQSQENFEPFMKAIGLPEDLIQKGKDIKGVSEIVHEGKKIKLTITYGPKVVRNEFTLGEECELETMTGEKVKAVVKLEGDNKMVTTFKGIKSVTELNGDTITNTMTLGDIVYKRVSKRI
Description: as §3, §4

[5] = target: T5, PG + 5X 4-HNE treated rL-FABP (Mus musculus, UniProt P12710); assay: ANS equilibrium binding to PG + 5X 4-HNE treated rL-FABP
T5 construct: made in house; host or cells: Escherichia coli BL21 (DE3)
T5 sequence (P12710 1-127): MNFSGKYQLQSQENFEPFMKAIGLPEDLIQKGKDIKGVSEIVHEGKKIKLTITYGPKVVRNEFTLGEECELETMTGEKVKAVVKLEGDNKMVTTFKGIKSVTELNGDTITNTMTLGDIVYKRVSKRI
Description: as §3, §4

[6] = rL-FABP treated with 1X 4-HNE (53.93 µM)
[7] = rL-FABP treated with 5X 4-HNE (245.09 µM)
[8] = rL-FABP treated with 5X 4-HNE + PG

- br (counts residual) (rL-FABP [1]): 171,600±19,800 AFU
- n (hill coefficient) (rL-FABP [1]): 2.31±0.29
- bi (counts inhibitable) (rL-FABP [1]): 680,200±26,500000 AFU
- Ki (rL-FABP [1]): 5880 ± 1450 nM
- bi (counts inhibitable) (4-HNE adducted rL-FABP): 457,600±26,400 AFU
- Ki (4-HNE adducted rL-FABP): 690 ± 97 nM
- br (counts residual) (4-HNE adducted rL-FABP): 63,500±19,200 AFU
- n (hill coefficient) (4-HNE adducted rL-FABP): 0.81±0.0999
- reduction of maximal binding to the FA by 4-HNE (4-HNE adducted rL-FABP): 32.7%
Structure (SMILES): CCCCCCCC/C=C\CCCCCCCC(=O)O [Oleic Acid]

- br (counts residual) (rL-FABP [1]): 164,800±43,900 AFU
- n (hill coefficient) (rL-FABP [1]): 1.38±0.26
- bi (counts inhibitable) (rL-FABP [1]): 888,000±54 AFU
- Ki (rL-FABP [1]): 1560 ± 290 nM
- bi (counts inhibitable) (4-HNE adducted rL-FABP): 449,500±11,400 AFU
- Ki (4-HNE adducted rL-FABP): 2800 ± 300 nM
- br (counts residual) (4-HNE adducted rL-FABP): 96,300±9,200 AFU
- n (hill coefficient) (4-HNE adducted rL-FABP): 1.76±0.14
- reduction of maximal binding to the FA by 4-HNE (4-HNE adducted rL-FABP): 49%
Structure (SMILES): CCCCC/C=C\C/C=C\CCCCCCCC(=O)O [Linoleic Acid]

Structure (SMILES): CCO [ethanol]
- poly-ubiquitinated L-FABP normalized to total L-FABP (L-FABP [2]; co-immunoprecipitation, ethanol diet 6 weeks, P<0.001, n = 6): significant increase
- decrease in FABP1 mRNA (RT-PCR) (L-FABP [2]; ethanol diet 6 weeks versus control): 1.6 fold
- relative expression of FABP1 (L-FABP [2]; ethanol livers, control 1.00±0.084, P<0.05, n = 3): 0.617±0.069
- reduction in L-FABP protein (1D Western Blot) (L-FABP [2]; whole cell lysates, ethanol diet 6 weeks versus control, P<0.001, n = 6): ~80%
- decrease in expression of L-FABP (L-FABP [3]): ~30%
- decrease in the mRNA of FABP1 (FABP1): > 50%

Structure (SMILES): O=S(=O)(O)c1cccc2cccc(Nc3ccccc3)c12 [ANS, 1-Anilinonaphthalene-8-Sulfonic Acid]
- Kd (rL-FABP [4]): 347 ± 153 nM
- Bmax1 (rL-FABP [4]; native rL-FABP (0X 4-HNE), 1 µM protein, primary site): 540,200±142,500 AFU
- Bmax2 (rL-FABP [4]; native rL-FABP, secondary site): 500,500±116,800 AFU
- Kd (rL-FABP [4]; read-out: Kd2, native rL-FABP, secondary site): 6170 ± 1440 nM
- decrease in the affinity for ANS, secondary binding site (4-HNE modified rL-FABP; 5X 4-HNE versus native (kd2)): ~6 fold
- Kd (4-HNE modified rL-FABP; Kd1, rL-FABP treated with 0.1X 4-HNE (5.93 µM)): 132 ± 74 nM
- Kd (4-HNE modified rL-FABP; Kd1, rL-FABP treated with 1X 4-HNE (53.93 µM)): 135 ± 74 nM
- Kd (4-HNE modified rL-FABP; Kd1, rL-FABP treated with 5X 4-HNE (245.09 µM)): 395 ± 101 nM
- Bmax1 (4-HNE modified rL-FABP; rL-FABP treated with 0.1X 4-HNE (5.93 µM)): 175,500±36,800 AFU
- Bmax1 (4-HNE modified rL-FABP; [6]): 123,000±28,900 AFU
- Bmax2 (4-HNE modified rL-FABP; [6]): 548,900±23,700 AFU
- Bmax1 (4-HNE modified rL-FABP; [7]): 238,100±21,700 AFU
- Bmax2 (4-HNE modified rL-FABP; [7]): 537,400±81,900 AFU
- Kd (4-HNE modified rL-FABP; read-out: Kd2, rL-FABP treated with 0.1X 4-HNE (5.93 µM)): 7400 ± 1070 nM
- Kd (4-HNE modified rL-FABP; read-out: Kd2, rL-FABP treated with 1X 4-HNE (53.93 µM)): 4990 ± 710 nM
- Kd (4-HNE modified rL-FABP; read-out: Kd2, rL-FABP treated with 5X 4-HNE (245.09 µM)): 34200 ± 13900 nM
- Kd (PG treated rL-FABP): 165 ± 111 nM
- Bmax1 (PG treated rL-FABP; rL-FABP treated with PG 10 mM): 83,200±23,200 AFU
- Bmax2 (PG treated rL-FABP; rL-FABP treated with PG 10 mM): 446,400±17,500 AFU
- Kd (PG treated rL-FABP; read-out: Kd2, rL-FABP treated with PG 10 mM): 7180 ± 121 nM
- Kd [5]: 326 ± 127 nM
- Bmax1 [5, 8]: 168,200±22,900 AFU
- Bmax2 [5, 8]: 512,200±64,500 AFU
- Kd ([5]; read-out: Kd2, rL-FABP treated with 5X 4-HNE + PG): 27900 ± 10700 nM
